Assay results reported in US10399945B2, “Tetrahydronaphthyl urea derivative” (MOCHIDA PHARMACEUTICAL CO., LTD., priority 2017, dated 2019).

Target: Human TrkA Protein (Homo sapiens (Human), UniProt P04629)
Assay: Evaluation of Binding Activity for Human TrkA Protein (TrkA LanthaScreen Eu Kinase Binding Assay)
Conditions: TrkA enzyme, Kinase Tracer 236, TR-FRET, 60 minutes at room temperature
Method: (Pharmacological Experimental Example 1): Evaluation of Binding Activity for Human TrkA Protein
Measurement was carried out using TrkA LanthaScreen (registered trademark) Eu Kinase Binding Assay (ThermoFisher SCIENTIFIC). To a 384 well plate (Corning), 2.5 μL of the test compound having various concentrations and diluted with Kinase buffer (ThermoFisher SCIENTIFIC) and 2.5 μL of 15 nM TrkA enzyme (ThermoFisher SCIENTIFIC) were added. Moreover, […] Eu-anti-His Tag antibody (ThermoFisher SCIENTIFIC) and 5 μL of 30 nM Kinase (registered trademark) Tracer 236 (ThermoFisher SCIENTIFIC) were added, followed by reaction at room temperature for 60 minutes. After the reaction, the fluorescence intensity of Europium (Emission wavelength 615 nm) and TR-FRET (Emission wavelength 665 nm) with an excitation wavelength of 340 nm were measured with EnVision 2100 (PerkinElmer) to calculate the fluorescence ratio as the amount of the test compound and the TrkA enzyme bonded. The inhibitory activity (IC50 value) of each test compound was calculated with the fluorescence ratio of the well to which a solvent was added instead of the test compound being 0% and the fluorescence ratio of the well without addition of the TrkA protein being 100%.
In Table 1, […] mean Compounds 1 to 62 synthesized in accordance with Examples 1 to 62 described later.

Human TrkA Protein, sequence (P04629 33-796): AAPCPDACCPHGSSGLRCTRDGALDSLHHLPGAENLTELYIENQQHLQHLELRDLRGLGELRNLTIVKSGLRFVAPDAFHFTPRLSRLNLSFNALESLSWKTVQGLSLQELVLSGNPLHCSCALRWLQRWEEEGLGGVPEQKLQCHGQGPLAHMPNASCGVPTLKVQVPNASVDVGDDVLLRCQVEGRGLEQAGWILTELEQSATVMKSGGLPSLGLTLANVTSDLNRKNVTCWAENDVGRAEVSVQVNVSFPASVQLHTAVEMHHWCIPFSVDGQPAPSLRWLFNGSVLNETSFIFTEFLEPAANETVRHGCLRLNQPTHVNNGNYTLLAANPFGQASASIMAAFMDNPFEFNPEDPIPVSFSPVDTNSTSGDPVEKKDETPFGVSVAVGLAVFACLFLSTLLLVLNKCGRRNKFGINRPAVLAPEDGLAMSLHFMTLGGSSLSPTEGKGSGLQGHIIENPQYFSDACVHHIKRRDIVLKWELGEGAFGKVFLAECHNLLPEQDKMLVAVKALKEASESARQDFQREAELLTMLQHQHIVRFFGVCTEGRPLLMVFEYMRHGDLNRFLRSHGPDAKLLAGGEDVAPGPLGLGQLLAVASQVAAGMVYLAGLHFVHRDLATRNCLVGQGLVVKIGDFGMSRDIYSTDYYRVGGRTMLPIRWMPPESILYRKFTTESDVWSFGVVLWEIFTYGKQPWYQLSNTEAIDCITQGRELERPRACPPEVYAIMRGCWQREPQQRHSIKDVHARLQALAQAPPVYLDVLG

IC50 | SMILES
≤ 50 nM | Cc1ncc(-c2nc(-c3ccccc3)c(NC(=O)N[C@@H]3c4cc(F)c(F)cc4C(C)(C)C[C@H]3O)cc2C)cn1 (racemic) [Compound 44, rac-1-((1R,2R)-6,7-difluoro-2-hydroxy-4,4-dimethyl-1,2,3,4-tetrahydronaphthalen-1-yl)-3-(5-methyl-6-(2-methylpyrimidin-5-yl)-2-phenylpyridin-3-yl)urea]
≤ 50 nM | Cc1ccc(-c2nc(-c3ccccc3)c(NC(=O)N[C@@H]3c4ccccc4C(C)(C)C[C@H]3O)cc2C)cn1 [Compound 12, 1-(3,6′-dimethyl-6-phenyl-[2,3′-bipyridin]-5-yl)-3-((1R,2R)-2-hydroxy-4,4-dimethyl-1,2,3,4-tetrahydronaphthalen-1-yl)urea]
≤ 50 nM | Cc1ncc(-c2nc(-c3ccccc3)c(NC(=O)N[C@@H]3c4ccccc4C(C)(C)C[C@H]3O)cc2C)cn1 (racemic) [Compound 3, rac-1-((1R,2R)-2-hydroxy-4,4-dimethyl-1,2,3,4-tetrahydronaphthalen-1-yl)-3-(5-methyl-6-(2-methylpyrimidin-5-yl)-2-phenylpyridin-3-yl)urea]
≤ 50 nM | Cc1cc(NC(=O)N[C@@H]2c3ccccc3C(C)(C)C[C@H]2O)c(-c2ccccc2)nc1-c1cn[nH]c1 [Compound 18, 1-((1R,2R)-2-hydroxy-4,4-dimethyl-1,2,3,4-tetrahydronaphthalen-1-yl)-3-(5-methyl-2-phenyl-6-(1H-pyrazol-4-yl)pyridin-3-yl)urea]
≤ 50 nM | Cc1ncc(-c2nc(-c3ccccc3)c(NC(=O)N[C@@H]3c4cc(F)c(F)cc4C(C)(C)C[C@H]3O)cc2C)cn1 (racemic) [Compound 44a]
≤ 50 nM | Cc1ccc(NC(=O)N[C@@H]2c3cc(F)c(F)cc3C(C)(C)C[C@H]2O)c(-c2ccccc2)n1 (racemic) [Compound 39, rac-1-((1R,2R)-6,7-difluoro-2-hydroxy-4,4-dimethyl-1,2,3,4-tetrahydronaphthalen-1-yl)-3-(6-methyl-2-phenylpyridin-3-yl)urea]
≤ 50 nM | COCc1ccc2c(c1)[C@@H](NC(=O)Nc1cc(C)cnc1C1CCOCC1)[C@H](O)CC2(C)C (racemic) [Compound 33, rac-1-((1R,2R)-2-hydroxy-7-(methoxymethyl)-4,4-dimethyl-1,2,3,4-tetrahydronaphthalen-1-yl)-3-(5-methyl-2-(tetrahydro-2H-pyran-4-yl)pyridin-3-yl)urea]
≤ 50 nM | Cc1cc(NC(=O)N[C@@H]2c3cc(F)c(F)cc3C(C)(C)C[C@H]2O)c(-c2ccccc2)nc1-c1ccn(C)n1 (racemic) [Compound 48, rac-1-((1R,2R)-6,7-difluoro-2-hydroxy-4,4-dimethyl-1,2,3,4-tetrahydronaphthalen-1-yl)-3-(5-methyl-6-(1-methyl-1H-pyrazol-3-yl)-2-phenylpyridin-3-yl)urea]
50 to 1000 nM | Cc1ccnc(-c2ccccc2)c1NC(=O)N[C@@H]1c2cc(F)c(F)cc2C(C)(C)C[C@H]1O (racemic) [Compound 38, rac-1-((1R,2R)-6,7-difluoro-2-hydroxy-4,4-dimethyl-1,2,3,4-tetrahydronaphthalen-1-yl)-3-(4-methyl-2-phenylpyridin-3-yl)urea]
≤ 50 nM | Cc1cc(NC(=O)N[C@@H]2c3ccccc3C(C)(C)C[C@H]2O)c(-c2ccccc2)nc1-c1ccc(S(C)(=O)=O)nc1 [Compound 14, 1-((1R,2R)-2-hydroxy-4,4-dimethyl-1,2,3,4-tetrahydronaphthalen-1-yl)-3-(3-methyl-6′-(methylsulfonyl)-6-phenyl-[2,3′-bipyridin]-5-yl)urea]
≤ 50 nM | Cc1cc(NC(=O)N[C@@H]2c3cc(F)c(F)cc3C(C)(C)C[C@H]2O)c(-c2ccccc2)nc1-c1cnn(C)c1 (racemic) [Compound 51, rac-1-((1R,2R)-6,7-difluoro-2-hydroxy-4,4-dimethyl-1,2,3,4-tetrahydronaphthalen-1-yl)-3-(5-methyl-6-(1-methyl-1H-pyrazol-4-yl)-2-phenylpyridin-3-yl)urea]
50 to 1000 nM | Cc1ncc(-c2nc(-c3ccccc3)c(NC(=O)N[C@@H]3c4cc(F)c(F)cc4C(C)(C)C[C@H]3O)cc2C)s1 (racemic) [Compound 50, rac-1-((1R,2R)-6,7-difluoro-2-hydroxy-4,4-dimethyl-1,2,3,4-tetrahydronaphthalen-1-yl)-3-(5-methyl-6-(2-methylthiazol-5-yl)-2-phenylpyridin-3-yl)urea]
≤ 50 nM | Cc1cnc(-c2ccccc2)c(NC(=O)N[C@@H]2c3cc(Br)ccc3C(C)(C)C[C@H]2O)c1 (racemic) [Compound 32, rac-1-((1R,2R)-7-bromo-2-hydroxy-4,4-dimethyl-1,2,3,4-tetrahydronaphthalen-1-yl)-3-(5-methyl-2-phenylpyridin-3-yl)urea]
50 to 1000 nM | Cc1cnc(C2CCOCC2)c(NC(=O)N[C@@H]2c3cc(F)c(F)cc3C(C)(C)C[C@H]2O)c1 (racemic) [Compound 57, rac-1-((1R,2R)-6,7-difluoro-2-hydroxy-4,4-dimethyl-1,2,3,4-tetrahydronaphthalen-1-yl)-3-(5-methyl-2-(tetrahydro-2H-pyran-4-yl)pyridin-3-yl)urea]
50 to 1000 nM | Cc1ncc(-c2nc(C3CCOCC3)c(NC(=O)N[C@@H]3c4cc(F)c(F)cc4C(C)(C)C[C@H]3O)cc2C)cn1 (racemic) [Compound 59, rac-1-((1R,2R)-6,7-difluoro-2-hydroxy-4,4-dimethyl-1,2,3,4-tetrahydronaphthalen-1-yl)-3-(5-methyl-6-(2-methylpyrimidin-5-yl)-2-(tetrahydro-2H-pyran-4-yl)pyridin-3-yl) urea]
≤ 50 nM | Cc1cc(NC(=O)N[C@@H]2c3ccccc3C(C)(C)C[C@H]2O)c(-c2ccccc2)nc1-c1cnn(C)c1 [Compound 10, 1-((1R,2R)-2-hydroxy-4,4-dimethyl-1,2,3,4-tetrahydronaphthalen-1-yl)-3-(5-methyl-6-(1-methyl-1H-pyrazol-4-yl)-2-phenylpyridin-3-yl)urea]
50 to 1000 nM | Cc1cc(NC(=O)N[C@@H]2c3ccccc3C(C)(C)C[C@H]2O)c(C2CCOCC2)nc1C(N)=O (racemic) [Compound 27, rac-5-(3-((1R,2R)-2-hydroxy-4,4-dimethyl-1,2,3,4-tetrahydronaphthalen-1-yl)ureido)-3-methyl-6-(tetrahydro-2H-pyran-4-yl)picolinamide]
≤ 50 nM | Cc1cc(NC(=O)N[C@@H]2c3ccc(Br)cc3C(C)(C)C[C@H]2O)c(-c2ccccc2)nc1C(N)=O (racemic) [Compound 23, rac-5-(3-((1R,2R)-6-bromo-2-hydroxy-4,4-dimethyl-1,2,3,4-tetrahydronaphthalen-1-yl)ureido)-3-methyl-6-phenylpicolinamide]
≤ 50 nM | Cc1cc(NC(=O)N[C@@H]2c3ccccc3C(C)(C)C[C@H]2O)c(-c2ccccc2)nc1-c1cncc(C(F)(F)F)c1 [Compound 11, 1-((1R,2R)-2-hydroxy-4,4-dimethyl-1,2,3,4-tetrahydronaphthalen-1-yl)-3-(3-methyl-6-phenyl-5′-(trifluoromethyl)-[2,3′-bipyridin]-5-yl)urea]
≤ 50 nM | Cc1cnc(-c2ccccc2)c(NC(=O)N[C@@H]2c3cc(F)c(F)cc3C(C)(C)C[C@H]2O)c1 (racemic) [Compound 37a]
≤ 50 nM | Cc1cc(NC(=O)N[C@@H]2c3ccccc3C(C)(C)C[C@H]2O)c(C2CCOCC2)nc1-c1ccc(O)nc1 (racemic) [Compound 31, rac-1-(6′-hydroxy-3-methyl-6-(tetrahydro-2H-pyran-4-yl)-[2,3′-bipyridin]-5-yl)-3-((1R,2R)-2-hydroxy-4,4-dimethyl-1,2,3,4-tetrahydronaphthalen-1-yl)urea]
50 to 1000 nM | Cc1cc(NC(=O)N[C@@H]2c3cc(F)c(F)cc3C(C)(C)C[C@H]2O)c(C2CCOCC2)nc1C(N)=O (racemic) [Compound 58, rac-5-(3-((1R,2R)-6,7-difluoro-2-hydroxy-4,4-dimethyl-1,2,3,4-tetrahydronaphthalen-1-yl)ureido)-3-methyl-6-(tetrahydro-2H-pyran-4-yl)picolinamide]
≤ 50 nM | Cc1cc(NC(=O)N[C@@H]2c3ccccc3C(C)(C)C[C@H]2O)c(-c2ccccc2)nc1-c1ccnc(C(F)(F)F)c1 [Compound 17, 1-((1R,2R)-2-hydroxy-4,4-dimethyl-1,2,3,4-tetrahydronaphthalen-1-yl)-3-(3-methyl-6-phenyl-2′-(trifluoromethyl)-[2,4′-bipyridin]-5-yl)urea]
50 to 1000 nM | Cc1cc(NC(=O)N[C@@H]2c3cc(F)c(F)cc3C(C)(C)C[C@H]2O)c(C2CCOCC2)nc1-c1cn[nH]c1 (racemic) [Compound 61, rac-1-((1R,2R)-6,7-difluoro-2-hydroxy-4,4-dimethyl-1,2,3,4-tetrahydronaphthalen-1-yl)-3-(5-methyl-6-(1H-pyrazol-4-yl)-2-(tetrahydro-2H-pyran-4-yl)pyridin-3-yl)urea]
≤ 50 nM | Cc1ncc(-c2nc(-c3ccccc3)c(NC(=O)N[C@@H]3c4ccccc4C(C)(C)C[C@H]3O)cc2C)cn1 [Compound 9, 1-((1R,2R)-2-hydroxy-4,4-dimethyl-1,2,3,4-tetrahydronaphthalen-1-yl)-3-(5-methyl-6-(2-methylpyrimidin-5-yl)-2-phenylpyridin-3-yl)urea]
50 to 1000 nM | Cc1cc(NC(=O)N[C@@H]2c3cc(F)c(F)cc3C(C)(C)C[C@H]2O)c(C2CCOCC2)nc1-c1cn[nH]c1 (racemic) [Compound 61a]
